Test results taken from patent US20060069132A1, “Azolecarboxamide herbicides” (priority 2004, published 2006).
Read-outs that look alike come from different tables or passages of the source.

Key:
wheat = test: Test B postemergence herbicide test; type: in vivo, Triticum aestivum; conditions: Triticum aestivum, post-emergence, 336 h, postemergence, read-out: Wheat plant response rating
How it was run: (§1)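 Visual ratings, 0 (no effect) to 100 (complete control), made versus controls after 13–15 d greenhouse. Paddy plants treated at 2-leaf stage; postemergence plants at 1- to 4-leaf stage, 2–18 cm tall.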

wild oat = test: Test B postemergence herbicide test; type: in vivo, Avena fatua; conditions: Avena fatua, post-emergence, 336 h, postemergence, read-out: Oat, Wild plant response rating
How it was run: as §1

lambsquarters = test: Test B pre-/postemergence herbicide test; type: in vivo, Chenopodium album; conditions: Chenopodium album, 336 h; for pest or weed control at 125 g/ha: 125 g ai/ha; for pest or weed control at 500 g/ha: 500 g ai/ha
How it was run: (§2)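 Greenhouse pot assay with simultaneous preemergence (treated seed) and postemergence (2–18 cm seedlings) applications of surfactant-containing, non-phytotoxic solvent formulations. Response scored visually 13–15 days later on a 0–100 scale, 100 meaning complete control.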

morningglory = test: Test B pre-/postemergence herbicide test; type: in vivo, Ipomoea coccinea; conditions: Ipomoea, 336 h; for pest or weed control at 125 g/ha: 125 g ai/ha; for pest or weed control at 500 g/ha: 500 g ai/ha
How it was run: (§3)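 Response was scored visually 13 to 15 days after treatment against untreated greenhouse controls, 0 meaning no effect and 100 complete control. Formulations (solvent mixture plus surfactant) went onto soil after planting, onto foliage of 1- to 4-leaf plants, and onto 2-leaf plants in a flooded paddy set including rice and barnyardgrass.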

barnyardgrass [1] = test: Test B flooded paddy test; type: in vivo, Echinochloa crus-galli; conditions: Echinochloa crus-galli, 336 h, 1000 g ai/ha, scale 0 to 100 (0 no effect, 100 complete control), read-out: Barnyardgrass plant response rating
How it was run: (§4)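 Visual control ratings, 0–100 versus untreated controls, taken after 13 to 15 days in the greenhouse. Blackgrass received a postemergence spray at the 1- to 4-leaf stage (2–18 cm); ducksalad, umbrella sedge and barnyardgrass were flooded-paddy treated at 2 leaves.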

giant foxtail = test: Test B pre-/postemergence herbicide test; type: in vivo, Setaria faberi; conditions: Setaria faberi, 336 h; for pest or weed control at 125 g/ha: 125 g ai/ha; for pest or weed control at 500 g/ha: 500 g ai/ha
How it was run: as §2

ducksalad = test: Test B flooded paddy test; type: in vivo, Heteranthera limosa; conditions: Heteranthera limosa, 336 h, 1000 g ai/ha, scale 0 to 100 (0 no effect, 100 complete control), read-out: Ducksalad plant response rating
How it was run: as §4

cocklebur = test: Test B pre-/postemergence herbicide test; type: in vivo, Xanthium strumarium; conditions: Xanthium strumarium; for pest or weed control at 125 g/ha: 125 g ai/ha; for pest or weed control at 500 g/ha: 500 g ai/ha
How it was run: as §3

pigweed = test: Test B pre-/postemergence herbicide test; type: in vivo, Amaranthus retroflexus; conditions: Amaranthus retroflexus, 336 h; for pest or weed control at 125 g/ha: 125 g ai/ha; for pest or weed control at 500 g/ha: 500 g ai/ha
How it was run: as §2

Surinam grass = test: Test B pre-/postemergence herbicide test; type: in vivo, Urochloa decumbens; conditions: Urochloa decumbens; for pest or weed control at 125 g/ha: 125 g ai/ha; for pest or weed control at 500 g/ha: 500 g ai/ha
How it was run: as §2

corn = test: Test B pre-/postemergence herbicide test; type: in vivo, Zea mays; conditions: Zea mays; for plant injury at 125 g/ha: 125 g ai/ha
How it was run: as §2

blackgrass = test: Test B postemergence herbicide test; type: in vivo, Alopecurus myosuroides; conditions: Alopecurus myosuroides, post-emergence, 336 h, postemergence, read-out: Blackgrass plant response rating
How it was run: as §4

large crabgrass = test: Test B pre-/postemergence herbicide test; type: in vivo, Digitaria sanguinalis; conditions: Digitaria sanguinalis; for pest or weed control at 125 g/ha: 125 g ai/ha; for pest or weed control at 500 g/ha: 500 g ai/ha
How it was run: as §2

rice = test: Test B flooded paddy test; type: in vivo, Oryza sativa; conditions: Oryza sativa, 336 h, 1000 g ai/ha, scale 0 to 100 (0 no effect, 100 complete control), read-out: Rice plant response rating
How it was run: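 Greenhouse test; postemergence application to plants at 1–4 leaves (2–18 cm); paddy species at 2 leaves; evaluated visually vs controls at 13–15 days; scale 0–100 (100 = complete control).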

[2] = test system: small flower umbrella sedge; test: Test B flooded paddy test; type: in vivo, Cyperus difformis; conditions: Cyperus difformis, 336 h, 1000 g ai/ha, scale 0 to 100 (0 no effect, 100 complete control), read-out: Sedge, Umbrella plant response rating
How it was run: as §4

barnyardgrass [3] = test: Test B pre-/postemergence herbicide test; type: in vivo, Echinochloa crus-galli; conditions: Echinochloa crus-galli; for pest or weed control at 125 g/ha: 125 g ai/ha; for pest or weed control at 500 g/ha: 500 g ai/ha
How it was run: as §3

[4] = 125 g ai/ha, visual rating, scale 0 (no effect) to 100 (complete control)
[5] = 500 g ai/ha, scale 0 to 100, 0 is no effect, 100 is complete control

CCn1nc(C(C)(C)C)c(F)c1C(=O)Nc1cc(C(=O)N(C)C)ccc1F [Compound 276, N-[5-[(dimethylamino)carbonyl]-2-fluorophenyl]-3-(1,1-dimethylethyl)-1-ethyl-4-fluoro-1H-pyrazole-5-carboxamide]
60%: pest or weed control at 500 g/ha (lambsquarters; post-emergence, postemergence, scale 0 to 100, 0 is no effect, 100 is complete control, read-out: Lambsquarters plant response rating) | pest or weed control at 500 g/ha (Surinam grass; pre-emergence, visual rating, 0 = no effect, 100 = complete control, read-out: Plant response rating, Surinam Grass) | Corn plant response rating (crop injury, 0 = no effect, 100 = complete kill) at 500 g/ha (corn; pre-emergence, 500 g ai/ha, visual rating, 0 = no effect, 100 = complete control) | pest or weed control at 125 g/ha (barnyardgrass [3]; pre-emergence, 0 = no effect, 100 = complete control, read-out: Barnyardgrass plant response rating (0 to 100 scale))
30%: plant injury at 500 g/ha (wheat; [5]) | pest or weed control at 125 g/ha (wild oat; [4]) | pest or weed control at 500 g/ha (morningglory; post-emergence, postemergence, scale 0 to 100, 0 is no effect, 100 is complete control, read-out: Morningglory plant response rating) | pest or weed control at 125 g/ha (giant foxtail; pre-emergence, 0 = no effect, 100 = complete control, read-out: Foxtail, Giant plant response rating (0 to 100 scale)) | pest or weed control at 500 g/ha (cocklebur; pre-emergence, visual rating, 0 = no effect, 100 = complete control, read-out: Plant response rating, Cocklebur) | pest or weed control at 125 g/ha (pigweed; pre-emergence, 0 = no effect, 100 = complete control, read-out: Pigweed plant response rating (0 to 100 scale)) | pest or weed control at 125 g/ha (blackgrass; [4])
80%: pest or weed control at 1000 g/ha (ducksalad) | pest or weed control at 1000 g/ha [2] | pest or weed control at 500 g/ha (barnyardgrass [3]; pre-emergence, visual rating, 0 = no effect, 100 = complete control, read-out: Plant response rating, Barnyardgrass)
0%: pest or weed control at 125 g/ha (morningglory; pre-emergence, 0 = no effect, 100 = complete control, read-out: Morningglory plant response rating (0 to 100 scale)) | pest or weed control at 125 g/ha (cocklebur; pre-emergence, 0 = no effect, 100 = complete control, read-out: Cocklebur plant response rating (0 to 100 scale)) | plant injury at 125 g/ha (corn; post-emergence, postemergence, visual rating, scale 0 (no effect) to 100 (complete control), read-out: Corn plant response rating) | pest or weed control at 125 g/ha (barnyardgrass [3]; post-emergence, postemergence, visual rating, scale 0 (no effect) to 100 (complete control), read-out: Barnyardgrass plant response rating)
40%: pest or weed control at 500 g/ha (wild oat; [5]) | pest or weed control at 125 g/ha (lambsquarters; pre-emergence, 0 = no effect, 100 = complete control, read-out: Lambsquarters plant response rating (0 to 100 scale)) | pest or weed control at 500 g/ha (giant foxtail; post-emergence, postemergence, scale 0 to 100, 0 is no effect, 100 is complete control, read-out: Foxtail, Giant plant response rating) | pest or weed control at 125 g/ha (pigweed; post-emergence, postemergence, visual rating, scale 0 (no effect) to 100 (complete control), read-out: Pigweed plant response rating) | pest or weed control at 500 g/ha (blackgrass; [5])
90%: pest or weed control at 500 g/ha (giant foxtail; pre-emergence, visual rating, 0 = no effect, 100 = complete control, read-out: Plant response rating, Foxtail, Giant)
10%: pest or weed control at 125 g/ha (morningglory; post-emergence, postemergence, visual rating, scale 0 (no effect) to 100 (complete control), read-out: Morningglory plant response rating) | pest or weed control at 500 g/ha (morningglory; pre-emergence, visual rating, 0 = no effect, 100 = complete control, read-out: Plant response rating, Morningglory) | pest or weed control at 125 g/ha (giant foxtail; post-emergence, postemergence, visual rating, scale 0 (no effect) to 100 (complete control), read-out: Foxtail, Giant plant response rating) | pest or weed control at 125 g/ha (cocklebur; post-emergence, postemergence, visual rating, scale 0 (no effect) to 100 (complete control), read-out: Cocklebur plant response rating) | pest or weed control at 500 g/ha (cocklebur; post-emergence, postemergence, scale 0 to 100, 0 is no effect, 100 is complete control, read-out: Cocklebur plant response rating) | pest or weed control at 125 g/ha (Surinam grass; post-emergence, postemergence, visual rating, scale 0 (no effect) to 100 (complete control), read-out: Surinam Grass plant response rating) | pest or weed control at 125 g/ha (Surinam grass; pre-emergence, 0 = no effect, 100 = complete control, read-out: Surinam Grass plant response rating (0 to 100 scale)) | pest or weed control at 125 g/ha (large crabgrass; post-emergence, postemergence, visual rating, scale 0 (no effect) to 100 (complete control), read-out: Crabgrass, Large plant response rating) | pest or weed control at 125 g/ha (large crabgrass; pre-emergence, 0 = no effect, 100 = complete control, read-out: Crabgrass, Large plant response rating (0 to 100 scale)) | pest or weed control at 500 g/ha (barnyardgrass [3]; post-emergence, postemergence, scale 0 to 100, 0 is no effect, 100 is complete control, read-out: Barnyardgrass plant response rating)
20%: plant injury at 125 g/ha (wheat; [4]) | pest or weed control at 125 g/ha (lambsquarters; post-emergence, postemergence, visual rating, scale 0 (no effect) to 100 (complete control), read-out: Lambsquarters plant response rating) | pest or weed control at 500 g/ha (Surinam grass; post-emergence, postemergence, scale 0 to 100, 0 is no effect, 100 is complete control, read-out: Surinam Grass plant response rating) | plant injury at 500 g/ha (corn; post-emergence, postemergence, 500 g ai/ha, scale 0 to 100, 0 is no effect, 100 is complete control, read-out: Corn plant response rating) | plant injury at 125 g/ha (corn; pre-emergence, 0 = no effect, 100 = complete control, read-out: Corn plant response rating (0 to 100 scale)) | pest or weed control at 500 g/ha (large crabgrass; post-emergence, postemergence, scale 0 to 100, 0 is no effect, 100 is complete control, read-out: Crabgrass, Large plant response rating)
70%: pest or weed control at 1000 g/ha (barnyardgrass [1]) | pest or weed control at 500 g/ha (pigweed; post-emergence, postemergence, scale 0 to 100, 0 is no effect, 100 is complete control, read-out: Pigweed plant response rating) | pest or weed control at 500 g/ha (large crabgrass; pre-emergence, visual rating, 0 = no effect, 100 = complete control, read-out: Plant response rating, Crabgrass, Large) | plant injury at 1000 g/ha (rice)
100%: pest or weed control at 500 g/ha (lambsquarters; pre-emergence, visual rating, 0 = no effect, 100 = complete control, read-out: Plant response rating, Lambsquarters) | pest or weed control at 500 g/ha (pigweed; pre-emergence, visual rating, 0 = no effect, 100 = complete control, read-out: Plant response rating, Pigweed)
